pIC50: −log10 of the molar value.
Columns and labels:
[1] = buffer or solvent
physchem [2] = conditions: not applicable
physchem [3] = conditions: buffer or solvent
[4] = target: T1, α3β4 nAChR expressed in Xenopus oocytes (Rattus norvegicus, UniProt P04757+P12392); assay: cell-based; assay type: cell-based
T1 construct: expressed in transfected cells; host or cells: Xenopus oocytes injected with cRNA

[5] = target: human serum albumin (HSA) (Homo sapiens, UniProt P02768); conditions: pH 7.2
[6] = pH 3

T1 sequence (P04757 26-499 limits assumed): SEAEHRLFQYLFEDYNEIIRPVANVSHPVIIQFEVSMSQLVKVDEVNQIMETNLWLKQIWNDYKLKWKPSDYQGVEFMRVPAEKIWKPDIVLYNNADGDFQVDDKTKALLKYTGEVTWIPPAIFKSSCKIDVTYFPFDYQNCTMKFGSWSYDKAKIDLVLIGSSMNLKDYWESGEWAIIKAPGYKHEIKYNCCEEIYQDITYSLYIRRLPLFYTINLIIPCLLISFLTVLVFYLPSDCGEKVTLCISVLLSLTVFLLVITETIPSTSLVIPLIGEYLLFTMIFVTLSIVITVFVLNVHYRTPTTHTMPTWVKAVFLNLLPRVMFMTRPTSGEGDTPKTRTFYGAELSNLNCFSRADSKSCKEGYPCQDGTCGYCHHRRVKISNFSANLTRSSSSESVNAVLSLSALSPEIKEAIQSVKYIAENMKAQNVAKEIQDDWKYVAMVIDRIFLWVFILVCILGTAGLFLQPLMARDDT
T1 sequence (P12392 21-495 limits assumed): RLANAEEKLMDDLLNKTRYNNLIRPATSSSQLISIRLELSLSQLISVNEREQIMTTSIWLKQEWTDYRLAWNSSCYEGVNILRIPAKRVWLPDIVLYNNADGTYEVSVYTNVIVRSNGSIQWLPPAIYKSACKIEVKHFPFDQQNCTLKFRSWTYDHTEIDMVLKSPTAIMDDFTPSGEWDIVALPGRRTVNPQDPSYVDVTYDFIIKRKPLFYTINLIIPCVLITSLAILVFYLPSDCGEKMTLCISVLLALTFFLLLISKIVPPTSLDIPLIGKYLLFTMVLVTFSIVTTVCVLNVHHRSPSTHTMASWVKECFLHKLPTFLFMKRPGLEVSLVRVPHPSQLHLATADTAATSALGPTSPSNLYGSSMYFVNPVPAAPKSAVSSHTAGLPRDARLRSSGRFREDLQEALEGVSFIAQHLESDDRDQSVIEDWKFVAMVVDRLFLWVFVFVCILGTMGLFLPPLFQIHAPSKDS
Sequence of human serum albumin (HSA) (P02768 25-609 limits assumed): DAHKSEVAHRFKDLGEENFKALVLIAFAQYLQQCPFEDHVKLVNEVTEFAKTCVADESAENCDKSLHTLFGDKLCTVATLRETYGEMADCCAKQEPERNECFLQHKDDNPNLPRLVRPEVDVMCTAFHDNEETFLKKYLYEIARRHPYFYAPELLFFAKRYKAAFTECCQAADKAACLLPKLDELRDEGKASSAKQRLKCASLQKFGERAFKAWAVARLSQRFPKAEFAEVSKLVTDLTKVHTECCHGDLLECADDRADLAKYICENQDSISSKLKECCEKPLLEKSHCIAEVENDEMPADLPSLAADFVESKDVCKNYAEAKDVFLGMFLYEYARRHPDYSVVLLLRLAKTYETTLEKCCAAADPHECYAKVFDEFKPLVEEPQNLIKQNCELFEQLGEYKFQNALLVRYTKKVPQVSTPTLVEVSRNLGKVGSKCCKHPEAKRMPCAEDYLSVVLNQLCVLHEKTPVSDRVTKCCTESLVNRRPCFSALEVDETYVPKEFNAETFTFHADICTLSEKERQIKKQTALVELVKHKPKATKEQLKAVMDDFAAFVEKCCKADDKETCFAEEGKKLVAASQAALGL

CC[C@H](C)[C@@H]1NC(=O)[C@@H]2CCCN2C(=O)[C@H](CO)NC(=O)[C@H](CCSC)NC(=O)[C@H](C)NC(=O)[C@H](CO)NC(=O)[C@@H]2CSSC[C@H](NC(=O)CN)C(=O)N[C@@H](CSSC[C@@H](C(N)=O)NC1=O)C(=O)N[C@@H](CO)C(=O)N[C@@H](Cc1cnc[nH]1)C(=O)N1CCC[C@H]1C(=O)N[C@@H](C(C)C)C(=O)N2 [TxID, α‐Conotoxin TxID]
remaining at 8 h [1]: 36%
remaining at 168 h (physchem [2]): 95%
remaining at 1 min (physchem [3]): 71%
remaining at 16 h (physchem [3]): 63%
Hill slope [4]: 1.17 (0.87–1.46)
Globular isomer remaining, % of the total [5]: 75%
Degradation rate constant K obs (50 °C) [6]: 1.01 × 10^−3 1/Mh
Degradation rate constant K obs (60 °C) [6]: 2.42 × 10^−3 1/Mh
Degradation rate constant K obs (70 °C) [6]: 5.54 × 10^−3 1/Mh
Degradation rate constant K obs (80 °C) [6]: 2.02 × 10^−2 1/Mh
E a, activation energy [6]: 27.9842 kcal/mol
t0.5, half-life period at 25 °C [6]: 707 days
t0.9, validity period at 25 °C [6]: 107 days

CC[C@H](C)[C@@H]1NC(=O)[C@@H]2CCCN2C(=O)[C@H](CO)NC(=O)[C@H](CC[S+](C)[O-])NC(=O)[C@H](C)NC(=O)[C@H](CO)NC(=O)[C@@H]2CSSC[C@H](NC(=O)CN)C(=O)N[C@@H](CSSC[C@@H](C(N)=O)NC1=O)C(=O)N[C@@H](CO)C(=O)N[C@@H](Cc1c[nH]cn1)C(=O)N1CCC[C@H]1C(=O)N[C@@H](C(C)C)C(=O)N2 (stereo partly shown) [Product I]
Hill slope [4]: 0.76 (0.65–0.86)
pIC50 [4]: 6.30
Response at 100 nM [4]: 15%

Source: article PMC6722883 (FEBS Open Bio, 2019)
